Test results: patent US8207176B2 (Glaxo Group Limited, priority 2005, dated 2012)
“Also recorded” adds a separate entry of the source.

test system: influx of neutrophils to the lung in LPS-challenged rats; assay: Rat LPS neutrophilia model; type: in vivo; details: intratracheal, LPS aerosol 100 ug/ml 15 min, lavage 4 hours later, in at least one of the range of conditions tested, significant p<0.05, nonsignificant p>0.05
Description: The effect of compounds on the influx of neutrophils to the lung in LPS-challenged rats is evaluated as follows. The test compound is suspended in one of the following solutions: 0.5% tween 80/PBS, 0.5% tween 80/saline, 10% EtOH/saline (with pH adjusted to 2.0, or 8.0 with HCl, or unadjusted), Saline @ pH 2.0, 6.5 or 8.0, 0.5% Tragacanth, 1% DMSO/20% Encapsin/Saline, or acidified 5% Tragacanth. The suspension process may be aided by the use of a glass homogenizer. For intratracheal administration, the animals are anesthetized with inhaled isoflurane and placed in a supine position, the trachea is intubated with a steel gavage needle (1.5 inch, 22 gauge, small ball) or a Penn-Century Microsprayer Aerosolizer (model IA-IB) and 200 ul of dosing solution is delivered. The animals are visually monitored during the recovery process, which typically occurs within two minutes. It is noted that the test compounds may be alternatively administered via the microsprayer in a dry powder blend with a suitable excipient, such as lactose.
Rats treated with compound or vehicle (15 min-24 hours pretreatment) are exposed to an LPS aerosol (100 ug/ml) for 15 min. Four hours later the rats are euthanized with pentobarbital (100 mg/kg, i.p.) and the airways are lavaged with 5 washes of 5 ml of phosphate buffered saline. The harvested cells are stained (Diffquick) and counted to determine total and differential cell data. […] Inhibition of neutrophil levels relative to no compound controls is calculated based on the differential counts.
The data is obtained as % inhibition using a particular concentration and pretreat time.

Row | SMILES | inhibition of neutrophilia (neutrophil levels in lung lavage relative to no compound controls)
1 | Cc1ccc(C(=O)Nc2nccs2)cc1-c1nc(NCCCNC(C)C)nc2c1ccc(=O)n2-c1c(F)cccc1F [Example 101, 3-[8-(2,6-difluorophenyl)-2-({3-[(1-methylethyl)amino]propyl}amino)-7-oxo-7,8-dihydropyrido[2,3-d]pyrimidin-4-yl]-4-methyl-N-1,3-thiazol-2-ylbenzamide] | statistically significant inhibition
2 | Cc1ccc(C(=O)Nc2nccs2)cc1-c1nc(NCCCNC(C)(C)C)nc2c1ccc(=O)n2-c1c(F)cccc1F [Example 102, 3-[8-(2,6-difluorophenyl)-2-({3-[(1,1-dimethylethyl)amino]propyl}amino)-7-oxo-7,8-dihydropyrido[2,3-d]pyrimidin-4-yl]-4-methyl-N-1,3-thiazol-2-ylbenzamide] | statistically nonsignificant inhibition
3 | Cc1ccc(C(=O)Nc2nccs2)cc1-c1nc(NCCNC(C)C)nc2c1ccc(=O)n2-c1c(F)cccc1F [Example 103, 3-[8-(2,6-difluorophenyl)-2-({2-[(1-methylethyl)amino]ethyl}amino)-7-oxo-7,8-dihydropyrido[2,3-d]pyrimidin-4-yl]-4-methyl-N-1,3-thiazol-2-ylbenzamide] | statistically significant inhibition
4 | Cc1ccc(C(=O)Nc2nccs2)cc1-c1nc(N(C)CCCN(C)C)nc2c1ccc(=O)n2-c1c(F)cccc1F [Example 107, 3-{8-(2,6-difluorophenyl)-2-[[3-(dimethylamino)propyl](methyl)amino]-7-oxo-7,8-dihydropyrido[2,3-d]pyrimidin-4-yl}-4-methyl-N-1,3-thiazol-2-ylbenzamide] | statistically significant inhibition
5 | Cc1ccc(C(=O)Nc2ccc(F)cc2)cc1-c1nc(N(C)CCCN(C)C)nc2c1ccc(=O)n2-c1c(F)cccc1F [Example 115, 3-{8-(2,6-difluorophenyl)-2-[[3-(dimethylamino)propyl](methyl)amino]-7-oxo-7,8-dihydropyrido[2,3-d]pyrimidin-4-yl}-N-(4-fluorophenyl)-4-methylbenzamide] | statistically nonsignificant inhibition
6 | CCN(CC)CCCNc1nc(-c2cc(C(=O)NC)ccc2C)c2ccc(=O)n(-c3c(F)cccc3F)c2n1 [Example 119, 3-[2-{[3-(diethylamino)propyl]amino}-8-(2,6-difluorophenyl)-7-oxo-7,8-dihydropyrido[2,3-d]pyrimidin-4-yl]-N,4-dimethylbenzamide] | statistically significant inhibition
7 | CCN(CC)CCCNc1nc(-c2cc(C(=O)N(C)C)ccc2C)c2ccc(=O)n(-c3c(F)cccc3F)c2n1 [Example 120, 3-[2-{[3-(diethylamino)-propyl]amino}-8-(2,6-difluorophenyl)-7-oxo-7,8-dihydropyrido[2,3-d]-pyrimidin-4-yl]-N,N,4-trimethylbenzamide] | statistically nonsignificant inhibition; also recorded: inactive
8 | CCN(CC)CCCNc1nc(-c2cc(C(=O)N[C@H](C)C(C)C)ccc2C)c2ccc(=O)n(-c3c(F)cccc3F)c2n1 [Example 130] | statistically nonsignificant inhibition
9 | CCN(CC)CCCNc1nc(-c2cc(C(=O)NCC3CCCC3)ccc2C)c2ccc(=O)n(-c3c(F)cccc3F)c2n1 [Example 132, N-(cyclopentylmethyl)-3-[2-{[3-(diethylamino)propyl]amino}-8-(2,6-difluorophenyl)-7-oxo-7,8-dihydropyrido[2,3-d]pyrimidin-4-yl]-4-methylbenzamidetrifluoroacetate] | statistically nonsignificant inhibition
